What all share (assay): NCI tumour cell line growth inhibition, 48 h
Assay [1] concerns ACHN renal.
The subject of assay [2] is MALME-3M melanoma.
The test system of assay [3] is SK-MEL-2 melanoma.
In assay [4] the test system is NCI-H522 lung.
For assay [5], the system named is SNB-75 CNS.
Assay [6] has as its system HL-60(TB) leukemia.
Assay [7] has as its system SF-539 CNS.
Assay [8] has as its system SK-OV-3 ovarian.
Assay [9] has as its system NCI-H460 lung.
The subject of assay [10] is NCI-H23 lung.
Assay [11] concerns LOX IMVI melanoma.
Assay [12] deals with MDA-MB-435.
Assay [13] concerns MDA-MB-231 breast.

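Five compound concentrations were applied to cells in 96-well plates for 48 hours; endpoints were derived by simple linear interpolation of the resulting dose-response curve. TGI marks complete inhibition of growth.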

Consider `C[N+](C)=c1nc(N2CCc3ccccc3C2)ss1`, for which the TGI in assay [1], in assay [2], in assay [3], in assay [4], in [5] and in [6] was above 100 µM each time. Moreover, the TGI in [7], in [8] and in [9] was above 100 µM in each case.
Regarding `CCC1CN2CCC3(c4ccccc4)CC(C(=O)OC)=CC1C23` (configuration not stated), the TGI was 30.4 µM in [1]; 29.7 µM in [2]; 27.2 µM in [4]; 28.9 µM in assay [10]; 51 µM in [5]; 31.3 µM in assay [7]. Also, the figures for the TGI in assay [8], in assay [11] and in assay [9] were 26.5 µM, 28.3 µM and 32.5 µM, respectively.
Regarding `Cc1cc(Cl)ccc1C1OC(=O)c2c1ccc1ccccc21` (configuration not stated), the TGI in assay [1], in assay [2], in [3], in assay [4], in assay [10] and in [5] was above 100 µM each time. Also, the TGI in assay [6], in assay [7], in assay [8], in assay [11] and in assay [9] was above 100 µM throughout.
Regarding `CC(C)C(NC(=O)C(Cc1ccccc1)NC(=O)[C@H]1CCC[C@H]1NC(=O)C(N)Cc1ccc(O)cc1)C(N)=O` (some centres not stated), the TGI in [1], in assay [2], in [12], in assay [3], in [4] and in assay [10] was above 100 µM each time. For the same compound, the TGI in [5], in assay [6], in assay [7], in [8], in assay [11] and in assay [9] was above 100 µM throughout. In addition, the TGI in [13] is above 100 µM.
`O=C1Oc2cc3c(c4cccc1c24)O[C@H](c1ccccc1)[C@@H](c1ccccc1)[C@@H]3c1ccc(Cl)cc1`: the TGI in [1], in [2], in assay [12], in [4], in assay [10] and in assay [6] was above 100 µM throughout. For the same compound, the TGI is above 100 µM in assay [7]; above 100 µM in assay [8]; above 100 µM in assay [11]; above 100 µM in assay [9]; 52.3 µM in assay [13].
As for `CCOC(OC1=C(C#N)CCCC1)C(C)[Se]c1ccccc1` (configuration not stated), the TGI in assay [1] is above 100 µM; in assay [2] it was above 100 µM; in assay [3], above 100 µM; in [4], 30.8 µM; in [10] it was 39.4 µM; in assay [5], above 100 µM. Moreover, the TGI in [6] was 49.4 µM; in assay [7], 38 µM; in assay [8], above 100 µM; in assay [11] it was 30.5 µM; in assay [9] it was above 100 µM.
On to `O=c1[nH]n(Cc2ccccc2Cl)c2ccccc12`, for which the TGI in [1], in [2], in [12], in assay [3], in assay [4] and in assay [10] was above 100 µM in each case. The TGI in [5], in assay [6], in [7], in assay [11], in assay [9] and in assay [13] was above 100 µM throughout.
In the case of `O=C1NC2(CCN(CCCC3(c4ccc(F)cc4)OCCO3)CC2)Oc2ccccc21`, the TGI in [1], in assay [2], in assay [12], in [10], in [5] and in assay [6] was above 100 µM in each case. Also, the TGI in [7], in assay [8], in assay [11], in assay [9] and in [13] was above 100 µM each time.
As to `COc1cc(C(=O)Oc2c(C#N)sc3c2c(=O)n(-c2ccccc2)c(=S)n3-c2ccccc2)cc(OC)c1OC`, the TGI in [1] is above 100 µM; in [2] it was 28 µM; in assay [12], 36.8 µM; in [4] it was 2.11 µM; in [10], 38.9 µM; in assay [5], 50.3 µM. The TGI is 41.3 µM in [6]; 24.1 µM in assay [7]; above 100 µM in [8]; 51.6 µM in assay [11]; 68.1 µM in assay [9]; 77.9 µM in assay [13].
For the compound `O=C(CC1C(=O)c2ccccc2C1=C1C(=O)c2ccccc2C1=O)c1ccccc1` (configuration not stated), the TGI was above 100 µM in [1]; above 100 µM in assay [2]; above 100 µM in assay [3]; 97.3 µM in assay [4]; above 100 µM in [10]; above 100 µM in assay [5]. In addition, the TGI in assay [6], in [7], in [8], in [11] and in assay [9] was above 100 µM each time.
Consider `CC(CCCOC(c1ccccc1)(c1ccccc1)c1ccccc1)OC(=O)Nc1ccccc1` (configuration not stated), for which the TGI in [1] was found to be 26.5 µM; in assay [2], 29.6 µM; in assay [4] it was 23.9 µM; in assay [10] it was 21.7 µM; in assay [5], 27.9 µM; in assay [6] it was 31.4 µM. The TGI came to 31.7 µM in assay [7], 27.2 µM in assay [8], 25.3 µM in assay [11] and 24.8 µM in assay [9].
On to `COP(=O)(OC)/C(=C\c1cn(C(c2ccccc2)(c2ccccc2)c2ccccc2)cn1)NC(C)=O`, for which the TGI in [1], in assay [2], in assay [12], in assay [4], in assay [10] and in assay [5] was above 100 µM in each case. The TGI in assay [6], in assay [7], in [8], in [11], in assay [9] and in assay [13] was above 100 µM throughout.

The values above are taken from PubChem BioAssay (NCI).
